For series [1], the system named is p-EGFR, p-KGFR and downstream effector p-ERK1/2. Description: EGFR and KGFR signal activation, phospho-protein immunoblot in serum-starved HaCaT cells. In kind it is cell-based, human. The following applies: 10 minutes ligand exposure; 100 nM PD168393, 1 μM PD173074, 100 μM genistein, 100 μM daidzein, 600 nM cetuximab. As to the method: FIG. 6. […] (A-B) Immunoblot of p-EGFR, p-KGFR and downstream effector p-ERK1/2 following 10 minutes ligand exposure (listed at the left of each blot: EGF, KGF, HPV16 PsV; lane 2) in serum-starved HaCaT cells. Mock exposed cells were negative controls (lane 1); ligand controls included 10 ng/ml EGF and 10 ng/ml KGF exposure (10 minutes). […] Actin is detected as a loading control. (C-D) Immunoblot of nuclear cell fractions and confocal microscopy localization of p-ERK1/2 following EGF and HPV16 exposure in serum-starved HaCaT cells at indicated times post-exposure. (C) Immunoblot for p-ERK1/2 in nuclear fractions from exposed cells. (D) Immunofluorescent confocal microscopy for localization of p-ERK1/2 (red) in PsV exposed cells. DAPI was used as a nuclear marker and was pseudocolored green to facilitate efficient co-localization of p-ERK1/2 in the nucleus. Parameters of lasers intensities were kept constant during the imaging.
Subconfluent HaCaT cells were serum-starved for 3-4 hours in Tyrode's buffer containing 0.05% BSA. After adding ˜100 vge/cell HPV16 PsV, 10 ng/ml EGF or 10 ng/ml KFG, cells were incubated at 37° C. for 10 minutes before transferring to ice and solubilizing cells with RIPA buffer. In some experiments cells were incubated with various inhibitors in Tyrode's buffer for 45 minutes and after Tyrode's washes, were incubated with virus as above in the presence of inhibitors. Lysates were clarified, mixed with Laemmli buffer and boiled for five minutes prior to SDS-PAGE Tmmunoblot was performed with various monoclonal and polyclonal antibodies: p-EGFR, p-KGFR (p-FGFR2b), p-ERK, actin. Nuclear fractionation was performed for detection of p-ERK movement into the nucleus. HaCaT cells were starved 4 h in Tyrode's solution containing 0.05% BSA, then exposed to HPV or EGF for various times. Cells were solubilized with NP40 lysis buffer and centrifuged. The pellet was incubated with nuclear extraction buffer. Following incubation on ice for one hour, the extract was clarified and the supernatant subjected to SDS-PAGE and immunoblot for analysis of p-ERK content.

Another series deals with HaCaT cells. Description: Cell cycle analysis by propidium iodide flow cytometry. In kind it is cell-based, human. The following applies: HaCaT cells in CM infected with HPV16, same inhibitor conditions as infection assays. How it is done: FIG. 7. […] (A) Relative HPV16 infection of HaCaT cells in the presence of specific GFR and protein tyrosine kinase inhibitors. […] Cells were exposed to HPV16 PsV at 100 vge/cell for one hour at 4° C., then washed extensively and shifted to 37° C. in the presence of the indicated inhibitor in CM for 24 hours at which time they were analyzed for luciferase expression. Data are represented as mean±SEM of three experiments. (B-C) EGFR knockdown was accomplished using siRNA to EGFR and the percent of EGFR protein remaining in EGFR-siRNA transfected HaCaT cells was determined by immunoblot and compared by densitometry to EGFR levels in cells transfected with a negative control siRNA at 48 hours post transfection. Four separate transfections were analyzed (B) and HPV16 PsV infection levels were measured at 24 hours post infection (48 hours post transfection) in each (C). Error bars represent the average of triplicate luciferase readings from the four transfections. (D) Cells were pre-treated four hours with 100 μm monastrol, pre-treated with monastrol for four hours plus PD168393 for duration, or pre-treated with PD168393 for four hours plus monastrol for duration. […] HaCaT cells starved in SFM (four hours) were exposed to HPV16 in CM (positive control) or SFM. After washing away unbound virus, cells were incubated for 24 hours in CM, Ty (Tyrode's buffer containing 0.05% BSA), SFM, syndecan-1 depleted CM (IP-syd), or EGF-depleted CM (IP-EGF). Infection was quantified by luciferase assay 24 hours post shift to 37° C. Data are represented as mean SEM of three experiments. […] HaCaT cells starved in SFM were exposed to HPV16 in SFM for one hour at 4° C. After washing away unbound virus, cells were incubated for 24 hours in. SFM, SFM containing GF, or in CM. Infections were quantified by luciferase assay; bars represented the mean SEM of three individual experiments. (G). […] The fractions of cells in G1 (1n), S (intermediate), and G2/M (2n) phases were expressed as percentages of the total.
For orientation: Flow cytometry measures light scatter and fluorescence of single cells or particles in a stream.

Series [2] concerns HPV16. Kind of series: HPV16 PsV infection of HaCaT cells, luciferase assay. Type of series: cell-based, human papillomavirus. Particulars: for block of HPV16 infection / reduction of infectivity: HaCaT in CM, 24 hours in presence of inhibitor, 1 μM AG1478, 100 nM PD168393, 100 μM genistein, 1 μM PD173074, 100-600 nM cetuximab, 100 vge/cell; for visible toxicity in dose-response analysis: HaCaT cells, dose-response of infection inhibition; for IC50: Human papillomavirus 16, HaCaT, read-out: IC50 of HPV16 infection inhibition; for restoration of HPV16 infectivity in SFM by added factor: serum-starved HaCaT, HPV16 bound in SFM, 24 hours in SFM plus factor, compared to CM. As to the method:
FIG. 2. […] (A, B) Immunoblot for syndecan-1 (polyclonal syndecan-1 Ab) after 24 hours at 37° C. in CM (A) or post starvation in SFM and after six hours at 37° C. in Tyrode's Buffer (B); immunoblot for HPV16 L1 released into CM post virus binding for indicated times (C) or 24 hours (E). […] Cells were untreated (U) or pre-treated with BM or MM for one hour, then exposed to HPV16 PsV in the presence of inhibitors in CM. Infection was assayed by quantifying luciferase levels at 24 hours p.i. (F). Data are represented as mean±SEM of three experiments. (G-H) IC50 of HPV16 infectivity inhibition by MMIP inhibitors batimastat and mariniastat. HaCaT cells incubated with serial dilutions of batimastat or marimastat in CM, for one hour before incubation with 100 viral genome equivalents (vge)/cell HPV16, one hour at 4° C. After washing away unbound virus, cells were incubated for 24 hours at 37° C. in the presence of inhibitors. HPV16 infection was measured with luciferase assay. Data are represented as mean±SEM of 3 experiments.
FIG. 7. […] (A) Relative HPV16 infection of HaCaT cells in the presence of specific GFR and protein tyrosine kinase inhibitors. […] Cells were exposed to HPV16 PsV at 100 vge/cell for one hour at 4° C., then washed extensively and shifted to 37° C. in the presence of the indicated inhibitor in CM for 24 hours at which time they were analyzed for luciferase expression. Data are represented as mean±SEM of three experiments. (B-C) EGFR knockdown was accomplished using siRNA to EGFR and the percent of EGFR protein remaining in EGFR-siRNA transfected HaCaT cells was determined by immunoblot and compared by densitometry to EGFR levels in cells transfected with a negative control siRNA at 48 hours post transfection. Four separate transfections were analyzed (B) and HPV16 PsV infection levels were measured at 24 hours post infection (48 hours post transfection) in each (C). Error bars represent the average of triplicate luciferase readings from the four transfections. (D) Cells were pre-treated four hours with 100 μm monastrol, pre-treated with monastrol for four hours plus PD168393 for duration, or pre-treated with PD168393 for four hours plus monastrol for duration. […] HaCaT cells starved in SFM (four hours) were exposed to HPV16 in CM (positive control) or SFM. After washing away unbound virus, cells were incubated for 24 hours in CM, Ty (Tyrode's buffer containing 0.05% BSA), SFM, syndecan-1 depleted CM (IP-syd), or EGF-depleted CM (IP-EGF). Infection was quantified by luciferase assay 24 hours post shift to 37° C. Data are represented as mean SEM of three experiments. […] HaCaT cells starved in SFM were exposed to HPV16 in SFM for one hour at 4° C. After washing away unbound virus, cells were incubated for 24 hours in. SFM, SFM containing GF, or in CM. Infections were quantified by luciferase assay; bars represented the mean SEM of three individual experiments. (G). To investigate if infection inhibition by the various agents used in FIG. 7A,D,E could be attributed to cell cycle changes, we used identical conditions and timing of inhibitor treatment on HaCaT cells. We then stained with propidium iodide and examined the cell cycle using flow cytometry. The fractions of cells in G1 (1n), S (intermediate), and G2/M (2n) phases were expressed as percentages of the total.

For series [3], the system named is HPV16. Kind of series: HPV16 release from HaCaT cells into media, L1 immunoblot. In kind it is cell-based, human papillomavirus. The following applies: CM, MMP inhibitor, FIG. 2E. How it is done:
FIG. 2. HPV16 and syndecan-1 release from the HaCaT cell plasma membrane is MMP dependent. (A, B) Immunoblot for syndecan-1 (polyclonal syndecan-1 Ab) after 24 hours at 37° C. in CM (A) or post starvation in SFM and after six hours at 37° C. in Tyrode's Buffer (B); immunoblot for HPV16 L1 released into CM post virus binding for indicated times (C) or 24 hours (E). (D) Gelatin zymography showing protease activity present in HaCaT cell CM alone or with binding of HPV16. (E-F) Effect of MMP inhibitors batimistat (BM) or marimastat (MM) at the indicated concentrations on HPV16 release into media as in panel C and densitometric quantification with AlphaEaseFC software (E) and relative infection levels (F). Cells were untreated (U) or pre-treated with BM or MM for one hour, then exposed to HPV16 PsV in the presence of inhibitors in CM. Infection was assayed by quantifying luciferase levels at 24 hours p.i. (F). Data are represented as mean±SEM of three experiments. […] HPV16 infection was measured with luciferase assay. […]
HaCaT cells were incubated with 200 vge/cell of HPV PsVs for 1 h at 4° C., washed three ties with media and incubated at 37° C. for various times before harvesting the experimental media. […] The eluted fractions were analyzed by SDS-PAGE followed by immunoblotting for HPV16 L1, proteoglycans and growth factors. […]

Results on nine compounds are retold here after patent US20120114639A1, “COMPOSITIONS AND METHODS FOR INHIBITING VIRAL AND/OR BACTERIAL INFECTIONS” (priority 2010, published 2012).

Regarding `COc1cc2ncnc(Nc3cccc(Cl)c3)c2cc1OC` [AG1478], the “rapid phosphorylation of the target GFR and downstream p-ERK1/2 induced by GFs or HPV16” value in series [1] was “completely abrogating signaling”.

As for `C=CC(=O)Nc1ccc2ncnc(Nc3cccc(Br)c3)c2c1` [PD168393], in the series on HaCaT cells, the “cell cycle distribution (G1, S, G2/M) versus no treatment” value is “relatively similar”. Further, in the series with HPV16 [2] (HaCaT, 100 μM monastrol plus PD168393, FIG. 7D), the “infection inhibition when PD168393 treatment was added with monastrol” value is “≈ 70%”. Moreover, in series [1], the “rapid phosphorylation of the target GFR and downstream p-ERK1/2 induced by GFs or HPV16” value is given as “diminished”.

With `CCN(CC)CCCCNc1ncc2cc(-c3cc(OC)cc(OC)c3)c(NC(=O)NC(C)(C)C)nc2n1` [PD173074], in the series on HaCaT cells, the “cell cycle distribution (G1, S, G2/M) versus no treatment” value is given as “relatively similar”. In the series on HPV16 [2], the “block of HPV16 infection / reduction of infectivity” value worked out at 35%.

In general, IC50 refers to the concentration at which inhibition is half-maximal. In the case of `CNC(=O)[C@H](Cc1ccccc1)NC(=O)[C@H](CC(C)C)[C@H](CSc1cccs1)C(=O)NO` [batimastat], in the series with HPV16 [2], the “visible toxicity in dose-response analysis” value is given as “absence of visible toxicity” and the IC50 was found to be 0.4 µM.

In the case of `O=c1c(-c2ccc(O)cc2)coc2cc(O)ccc12` [daidzein], the “rapid phosphorylation of the target GFR and downstream p-ERK1/2 induced by GFs or HPV16” value in series [1] is “no inhibitory effect”.

As for `O=c1c(-c2ccc(O)cc2)coc2cc(O)cc(O)c12` [genistein], the “block of HPV16 infection / reduction of infectivity” value in the series with HPV16 [2] is “almost completely blocked infection”. Moreover, the “rapid phosphorylation of the target GFR and downstream p-ERK1/2 induced by GFs or HPV16” value in series [1] is reported as “diminished”.

Turning to `CNC(=O)[C@@H](NC(=O)[C@H](CC(C)C)[C@H](O)C(=O)NO)C(C)(C)C` [marimastat], the “cell cycle distribution (G1, S, G2/M) versus no treatment” value in the series on HaCaT cells was “relatively similar”. The “HPV16 infection of HaCaT cells (in words)” value in the series with HPV16 [2] (CM, luciferase 24 hours p.i.) is given as “efficiently reduced HPV16 infection”. In the series on HPV16 [2] (HaCaT cells grown in CM and infected with HPV16), the “infection inhibition under cell cycle assay conditions” value is given as around 90%. In the series with HPV16 [2], the “visible toxicity in dose-response analysis” value is “absence of visible toxicity” and the IC50 came out at 1 µM. Moreover, in the series with HPV16 [3], the “release of HPV16 from cells” value is recorded as “effectively prevented the release”.

Consider EGF: epidermal growth factor, for which the “restoration of HPV16 infectivity in SFM by added factor” value in the series with HPV16 [2] was “fully restore infection levels”.

Turning to albumin, the “restoration of HPV16 infectivity in SFM by added factor” value in the series with HPV16 [2] is reported as “did not enhance infectivity”.
